In experiment [1] the target is MOP (Homo sapiens, UniProt P35372). It is filed as cell-based.
The next experiment addresses T1, adrenergic α1D receptor (Homo sapiens, UniProt P25100).
T1 sequence (P25100 1-572): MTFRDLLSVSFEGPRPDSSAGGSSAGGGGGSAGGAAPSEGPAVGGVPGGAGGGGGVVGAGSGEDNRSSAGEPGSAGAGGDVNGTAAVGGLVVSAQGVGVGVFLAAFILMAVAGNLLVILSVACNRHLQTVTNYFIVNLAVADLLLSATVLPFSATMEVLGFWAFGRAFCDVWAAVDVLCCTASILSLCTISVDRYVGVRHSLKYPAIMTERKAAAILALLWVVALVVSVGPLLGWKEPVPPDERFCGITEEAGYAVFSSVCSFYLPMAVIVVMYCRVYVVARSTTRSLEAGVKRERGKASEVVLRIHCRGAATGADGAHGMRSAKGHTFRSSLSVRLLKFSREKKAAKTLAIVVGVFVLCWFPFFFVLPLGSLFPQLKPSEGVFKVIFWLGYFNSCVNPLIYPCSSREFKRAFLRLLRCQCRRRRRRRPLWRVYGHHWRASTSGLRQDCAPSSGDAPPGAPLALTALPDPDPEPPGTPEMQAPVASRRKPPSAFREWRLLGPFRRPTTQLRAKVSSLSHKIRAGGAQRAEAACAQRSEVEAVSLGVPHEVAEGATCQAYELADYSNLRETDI
Briefly: Radioligand binding, adrenergic α1D.

Another experiment has as its target DOP (Homo sapiens, UniProt P41143). The class given is cell-based.
For experiment [2], the system named is MOP. To be noted: read-out: EC50 at MOP; other study ref 17; cited from earlier work.
The target in a further experiment is KOP (Homo sapiens, UniProt P41145). Nature of the experiment: cell-based. It is filed as cell-based.
The target of a further experiment is T2, adrenergic α2A receptor (Homo sapiens, UniProt P08913).
T2 sequence (P08913 1-465): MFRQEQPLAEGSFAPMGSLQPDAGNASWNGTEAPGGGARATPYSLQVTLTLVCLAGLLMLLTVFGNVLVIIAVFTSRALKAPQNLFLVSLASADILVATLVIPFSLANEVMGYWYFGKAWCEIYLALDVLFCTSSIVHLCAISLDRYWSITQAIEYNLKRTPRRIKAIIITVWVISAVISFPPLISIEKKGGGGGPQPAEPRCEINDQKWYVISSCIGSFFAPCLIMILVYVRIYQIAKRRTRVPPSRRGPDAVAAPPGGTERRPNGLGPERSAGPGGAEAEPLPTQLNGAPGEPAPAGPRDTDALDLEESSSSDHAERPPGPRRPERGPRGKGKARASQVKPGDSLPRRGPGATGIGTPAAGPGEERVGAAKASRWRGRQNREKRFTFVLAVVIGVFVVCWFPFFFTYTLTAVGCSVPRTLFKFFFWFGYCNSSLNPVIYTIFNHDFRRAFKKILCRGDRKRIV
Nature of the experiment: Radioligand binding, adrenergic α2A.

The target in the next experiment is mu opioid receptor (MOP) (Homo sapiens, UniProt P35372). The class given is binding.
A further experiment has as its system Sprague-Dawley rats. To be noted: rat, in vivo, iv, 0.1 mg/kg.
The next experiment concerns the target nociceptin NOP (ORL1) (Homo sapiens, UniProt P41146). Nature of the experiment: Radioligand binding, nociceptin receptor.
The target in another experiment is T3, adrenergic α1B receptor (Homo sapiens, UniProt P35368).
T3 sequence (P35368 1-520): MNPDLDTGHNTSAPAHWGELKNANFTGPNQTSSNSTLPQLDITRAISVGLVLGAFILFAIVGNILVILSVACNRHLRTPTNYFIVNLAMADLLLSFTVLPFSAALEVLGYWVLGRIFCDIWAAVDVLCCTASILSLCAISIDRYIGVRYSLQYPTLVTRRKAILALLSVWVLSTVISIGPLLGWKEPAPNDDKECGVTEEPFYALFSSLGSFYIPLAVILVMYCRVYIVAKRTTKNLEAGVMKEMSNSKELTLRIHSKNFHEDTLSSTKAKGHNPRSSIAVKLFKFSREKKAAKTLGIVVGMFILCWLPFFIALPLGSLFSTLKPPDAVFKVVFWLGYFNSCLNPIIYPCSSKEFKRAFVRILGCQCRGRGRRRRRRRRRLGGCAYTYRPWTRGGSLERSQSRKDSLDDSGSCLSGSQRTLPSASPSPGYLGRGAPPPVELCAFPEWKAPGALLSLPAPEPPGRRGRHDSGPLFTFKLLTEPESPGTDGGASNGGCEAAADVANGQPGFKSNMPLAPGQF
Briefly: Radioligand binding, adrenergic α1B.

Another experiment deals with T4, adrenergic α1A receptor (Homo sapiens, UniProt P35348).
T4 sequence (P35348 1-466): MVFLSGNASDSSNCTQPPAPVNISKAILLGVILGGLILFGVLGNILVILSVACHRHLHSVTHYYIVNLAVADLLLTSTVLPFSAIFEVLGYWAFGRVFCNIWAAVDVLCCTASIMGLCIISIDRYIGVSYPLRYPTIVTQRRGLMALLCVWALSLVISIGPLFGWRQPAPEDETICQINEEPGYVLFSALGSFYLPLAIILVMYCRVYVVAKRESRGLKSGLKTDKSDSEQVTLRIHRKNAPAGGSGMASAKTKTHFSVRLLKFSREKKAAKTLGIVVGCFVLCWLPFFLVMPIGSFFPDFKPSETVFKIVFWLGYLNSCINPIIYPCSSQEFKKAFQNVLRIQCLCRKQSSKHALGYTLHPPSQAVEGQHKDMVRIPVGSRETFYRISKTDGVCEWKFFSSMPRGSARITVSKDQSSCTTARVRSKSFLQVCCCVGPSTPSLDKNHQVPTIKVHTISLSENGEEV
Briefly: Radioligand binding, adrenergic α1A.

Structures are written as SMILES. Values joined by “and” are separate entries in the source; they are usually repeats but may differ in a detail not shown here. Identical values can stand only once.

nociceptin NOP (ORL1), sequence (P41146 whole entry): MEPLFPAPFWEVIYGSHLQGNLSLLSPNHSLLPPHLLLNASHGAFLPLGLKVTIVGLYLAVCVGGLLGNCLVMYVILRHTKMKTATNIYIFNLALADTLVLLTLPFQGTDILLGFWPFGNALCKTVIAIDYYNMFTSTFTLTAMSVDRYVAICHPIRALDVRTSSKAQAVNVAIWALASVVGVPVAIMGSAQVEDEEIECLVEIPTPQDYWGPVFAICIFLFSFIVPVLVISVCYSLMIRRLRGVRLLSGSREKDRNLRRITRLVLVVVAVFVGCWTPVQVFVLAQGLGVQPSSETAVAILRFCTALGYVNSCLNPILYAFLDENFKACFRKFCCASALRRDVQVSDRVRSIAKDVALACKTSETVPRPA
mu opioid receptor (MOP), sequence (P35372 whole entry): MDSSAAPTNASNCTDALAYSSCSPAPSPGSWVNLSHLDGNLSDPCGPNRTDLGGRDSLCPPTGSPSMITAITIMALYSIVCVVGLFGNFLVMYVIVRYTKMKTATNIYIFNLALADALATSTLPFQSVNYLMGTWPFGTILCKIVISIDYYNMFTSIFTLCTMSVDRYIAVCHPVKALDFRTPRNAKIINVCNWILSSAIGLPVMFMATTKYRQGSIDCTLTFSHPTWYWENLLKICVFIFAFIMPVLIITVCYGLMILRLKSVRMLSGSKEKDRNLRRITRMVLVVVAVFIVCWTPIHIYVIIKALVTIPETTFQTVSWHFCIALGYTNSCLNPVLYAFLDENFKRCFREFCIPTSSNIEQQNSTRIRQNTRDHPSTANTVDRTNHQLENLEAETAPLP
KOP, sequence (P41145 whole entry): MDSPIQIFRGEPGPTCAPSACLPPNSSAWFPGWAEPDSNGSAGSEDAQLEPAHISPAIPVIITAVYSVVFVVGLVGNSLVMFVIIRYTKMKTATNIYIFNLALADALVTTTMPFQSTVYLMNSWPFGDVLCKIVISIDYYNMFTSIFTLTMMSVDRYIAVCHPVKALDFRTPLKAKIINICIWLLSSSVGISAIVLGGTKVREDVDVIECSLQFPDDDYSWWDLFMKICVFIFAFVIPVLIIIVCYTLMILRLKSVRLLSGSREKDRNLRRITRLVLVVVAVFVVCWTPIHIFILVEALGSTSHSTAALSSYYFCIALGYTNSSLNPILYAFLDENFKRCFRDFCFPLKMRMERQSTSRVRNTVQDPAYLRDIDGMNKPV
DOP, sequence (P41143 whole entry): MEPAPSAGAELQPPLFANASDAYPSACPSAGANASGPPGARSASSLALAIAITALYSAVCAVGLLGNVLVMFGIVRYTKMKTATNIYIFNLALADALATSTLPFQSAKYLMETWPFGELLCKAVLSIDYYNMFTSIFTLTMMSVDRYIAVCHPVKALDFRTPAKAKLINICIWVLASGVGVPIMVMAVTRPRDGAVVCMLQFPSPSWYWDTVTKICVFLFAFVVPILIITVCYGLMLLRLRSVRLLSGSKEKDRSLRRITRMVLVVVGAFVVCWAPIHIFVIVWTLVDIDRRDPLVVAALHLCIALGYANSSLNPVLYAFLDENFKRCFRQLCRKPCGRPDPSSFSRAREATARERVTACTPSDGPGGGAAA
MOP (Homo sapiens, UniProt P35372), sequence (P35372 whole entry): as the sequence (P35372 whole entry) above

For orientation: EC50 means the concentration needed to bring the measured effect to its halfway point. Regarding `CC[C@@H]1CN2CC[C@@]3(O)C(=Nc4cccc(OC)c43)[C@@H]2C[C@@H]1/C(=C\OC)C(=O)OC` [7-hydroxymitragynine], the “functional effect at MOP” value on MOP [1] is “full agonist”. Further, the “percent displacement of bound radioligand, adrenergic α1D” value on adrenergic α1D receptor (100 nM test compound) is on record as −1.9%; on adrenergic α1D receptor (10,000 nM test compound) it was 13.5%. The “functional effect at DOP” value at DOP was “competitive antagonist”. In addition, the EC50 in the experiment on MOP [2] is 53 ± 4 nM. Also, the Kb at KOP was determined as 115 nM. In addition, the “functional effect at KOP” value on KOP is “competitive antagonist”. Moreover, the “percent displacement of bound radioligand, adrenergic a2A” value at adrenergic α2A receptor (100 nM test compound) is recorded as −6.7%; on adrenergic α2A receptor (10,000 nM test compound), −5.4%. At mu opioid receptor (MOP), the “percent displacement of bound radioligand, opioid μ” value is 81.8% and 100.7%. Further, the “effect of naltrexone on antinociception” value in the experiment with Sprague-Dawley rats is listed as “reversed”. In addition, the “percent displacement of bound radioligand, nociceptin NOP (ORL1)” value on nociceptin NOP (ORL1) (100 nM test compound) was −1.6%; at nociceptin NOP (ORL1) (10,000 nM test compound), 3.4%. The “percent displacement of bound radioligand, adrenergic α1B” value at adrenergic α1B receptor (100 nM test compound) is given as 5.9%; on adrenergic α1B receptor (10,000 nM test compound) it was −4.8%. The entries for the “percent displacement of bound radioligand, adrenergic α1A” value on adrenergic α1A receptor (100 nM test compound) and at adrenergic α1A receptor (10,000 nM test compound) were 10.1% and 3.5%, respectively.

The values are drawn from publication PMC7676998 (Journal of medicinal chemistry, 2019).
